Measured values published in PubChem BioAssay (NCI).
Several values for one entry are separate records, joined by “and”; a condition that tells them apart may be missing. Equal entries are not always repeated.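 The concentration for 50% growth inhibition is given as GI50. TGI: total growth inhibition.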

What was measured:
Assay in all cases: DTP human tumour cell line panel, 384-well format
[1] = test system: MDA-MB-468 breast
[2] = test system: SW-620 colon
[3] = test system: 786-0 renal
[4] = test system: RXF 393 renal
[5] = test system: HCT-116 colon
[6] = test system: A549 NSCLC
[7] = test system: SNB-19 CNS
[8] = test system: CAKI-1 renal
[9] = test system: MDA-MB-435 melanoma
[10] = test system: DU-145 prostate
[11] = test system: NCI-H226 lung
[12] = test system: UACC-257 melanoma
[13] = test system: OVCAR-5 ovarian
[14] = test system: SR leukemia
[15] = test system: NCI-H322M lung
[16] = test system: MALME-3M melanoma
[17] = test system: U251 glioblastoma
[18] = test system: NCI-H23 lung
[19] = test system: SK-OV-3 ovarian
[20] = test system: M14 melanoma
[21] = test system: CCRF-CEM leukemia
[22] = test system: MDA-MB-231 breast
[23] = test system: HT29 colon
[24] = test system: KM12 colon
[25] = test system: NCI-H460 NSCLC
[26] = test system: MCF7 breast
[27] = test system: SK-MEL-28 melanoma
[28] = test system: SF-295 CNS
[29] = test system: MOLT-4 leukemia
[30] = test system: PC-3 prostate
[31] = test system: TK-10 renal
[32] = test system: OVCAR-4 ovarian
[33] = test system: SK-MEL-2 melanoma
[34] = test system: NCI-H522 lung
[35] = test system: HL-60(TB) leukemia
[36] = test system: K-562 leukemia
[37] = test system: A498 renal
[38] = test system: UACC-62 melanoma
[39] = test system: BT-549 breast
[40] = test system: SK-MEL-5 melanoma
[41] = test system: IGROV1 ovarian
[42] = test system: T-47D breast
[43] = test system: HCC-2998 colon
[44] = test system: SF-268 CNS
[45] = test system: ACHN renal
[46] = test system: SN12C renal
[47] = test system: OVCAR-8 ovarian
[48] = test system: HOP-62 NSCLC
[49] = test system: NCI/ADR-RES ovarian
[50] = test system: UO-31 renal
[51] = test system: RPMI-8226 leukemia
[52] = test system: EKVX NSCLC
[53] = test system: HCT-15 colon
[54] = test system: LOX IMVI melanoma
[55] = test system: COLO 205 colon
[56] = test system: SF-539 CNS
[57] = test system: HOP-92 NSCLC
[58] = test system: SNB-75 CNS
[59] = test system: HS 578T breast
[60] = test system: OVCAR-3 ovarian

Compound: COc1cccc2c1C(=O)c1c(O)c3c(c(O)c1C2=O)C[C@@](O)(C(=O)CO)C[C@@H]3OC1CC(N)C(O)C(C)O1 (stereo partly specified)
- GI50 [1]: 26.2 nM and 14.8 nM and 12.7 nM
- TGI [1]: 70 nM and 36.6 nM and 28.3 nM
- GI50 [2]: 23.3 nM and 44.8 nM and 19.6 nM
- TGI [2]: 463 nM and 741 nM and 501 nM
- GI50 [3]: 42.9 nM and 25.3 nM and 46.5 nM
- TGI [3]: 227 nM and 226 nM and 1070 nM
- GI50 [4]: 37.2 nM and 41 nM and 117 nM
- TGI [4]: 211 nM and 114 nM and 274 nM
- GI50 [5]: 29.4 nM and 16.5 nM
- TGI [5]: 972 nM and 151 nM
- GI50 [6]: 58.7 nM and 26.3 nM and 41.3 nM
- TGI [6]: 473 nM and 188 nM and 222 nM
- GI50 [7]: 36.2 nM and 32.2 nM and 34.3 nM
- GI50 [8]: 41.9 nM and 25 nM
- TGI [8]: 504 nM and 160 nM
- GI50 [9]: 219 nM and 232 nM and 150 nM
- TGI [9]: 632 nM and 669 nM and 599 nM
- GI50 [10]: 33.7 nM and 18.5 nM
- TGI [10]: 148 nM and 214 nM
- GI50 [11]: 34.4 nM and 36.8 nM and 75.2 nM
- TGI [11]: 131 nM and 156 nM and 299 nM
- GI50 [12]: 109 nM and 118 nM and 125 nM
- TGI [12]: 389 nM and 255 nM and 261 nM
- GI50 [13]: 194 nM and 260 nM and 159 nM
- TGI [13]: 1040 nM and 2130 nM and 720 nM
- GI50 [14]: 4 nM
- TGI [14]: 7.78 nM
- GI50 [15]: 365 nM and 270 nM and 326 nM
- TGI [15]: 985 nM and 914 nM and 1830 nM
- GI50 [16]: 38.1 nM and 45.6 nM and 54.7 nM
- TGI [16]: 153 nM and 166 nM and 191 nM
- GI50 [17]: 20 nM and 18.4 nM and 14.3 nM
- GI50 [18]: 43 nM and 27.4 nM and 28.5 nM
- TGI [18]: 126 nM and 89 nM and 133 nM
- GI50 [19]: 68.1 nM and 75.6 nM and 80.2 nM
- TGI [19]: 334 nM and 377 nM and 409 nM
- GI50 [20]: 51.6 nM and 44.6 nM and 37.1 nM
- TGI [20]: 200 nM and 182 nM and 190 nM
- GI50 [21]: 8.6 nM and < 11.2 nM and < 10 nM
- TGI [21]: 27.4 nM and 19.4 nM and 17.7 nM
- GI50 [22]: 81.5 nM and 43.4 nM and 36.9 nM
- TGI [22]: 523 nM and 275 nM and 318 nM
- GI50 [23]: 114 nM and 119 nM and 106 nM
- TGI [23]: 490 nM and 303 nM and 263 nM
- GI50 [24]: 39.6 nM and 41 nM
- TGI [24]: 423 nM and 212 nM
- GI50 [25]: 9.14 nM
- TGI [25]: 86.1 nM and 98.9 nM
- GI50 [26]: 34 nM and 22.8 nM and 19.1 nM
- TGI [26]: 3210 nM and 1370 nM and 12200 nM
- GI50 [27]: 84.4 nM and 72.7 nM and 101 nM
- TGI [27]: 336 nM and 208 nM and 237 nM
- GI50 [28]: 49.2 nM and 32.3 nM and 52.2 nM
- TGI [28]: 169 nM and 135 nM and 447 nM
- GI50 [29]: 4.08 nM and < 10 nM
- TGI [29]: 7.81 nM
- GI50 [30]: 189 nM and 154 nM and 139 nM
- TGI [30]: 765 nM and 626 nM and 467 nM
- GI50 [31]: 78 nM and 88.7 nM
- TGI [31]: 461 nM and 328 nM
- GI50 [32]: 310 nM and 246 nM and 263 nM
- TGI [32]: 983 nM and 954 nM and 1910 nM
- GI50 [33]: 56.5 nM and 86 nM and 68.1 nM
- TGI [33]: 128 nM and 179 nM and 130 nM
- GI50 [34]: 25.3 nM and 18 nM and 11.1 nM
- TGI [34]: 75.6 nM and 69.7 nM and 117 nM
- GI50 [35]: 5.95 nM and < 10 nM
- TGI [35]: 14.5 nM and 11.8 nM
- GI50 [36]: 39.7 nM and 43.9 nM and 45.6 nM
- TGI [36]: 340 nM and 245 nM and 229 nM
- GI50 [37]: 38.2 nM and 30.6 nM and 50.9 nM
- TGI [37]: 472 nM and 184 nM and 244 nM
- GI50 [38]: 25.3 nM and 28.6 nM and 14.8 nM
- TGI [38]: 133 nM and 155 nM and 142 nM
- GI50 [39]: 23.3 nM and 18.2 nM and 13.6 nM
- TGI [39]: 128 nM and 70.2 nM and 130 nM
- GI50 [40]: 41.1 nM and 13.1 nM
- TGI [40]: 166 nM and 58.6 nM
- GI50 [41]: 72.5 nM and 46.7 nM
- TGI [41]: 1220 nM and 231 nM
- GI50 [42]: 32.9 nM and 32 nM and 40.8 nM
- GI50 [43]: 35.6 nM and 17.6 nM
- TGI [43]: 176 nM and 92.6 nM
- GI50 [44]: 35.2 nM and 32.6 nM and 36.3 nM
- TGI [44]: 207 nM and 138 nM and 213 nM
- GI50 [45]: 69.2 nM and 64 nM and 171 nM
- TGI [45]: 407 nM and 287 nM and 591 nM
- GI50 [46]: 35.8 nM and 31.4 nM and 33.5 nM
- TGI [46]: 162 nM and 166 nM and 181 nM
- GI50 [47]: 76.4 nM and 55.9 nM and 58 nM
- TGI [47]: 466 nM and 236 nM and 223 nM
- GI50 [48]: 40.6 nM and 23.8 nM and 34.4 nM
- TGI [48]: 145 nM and 91.6 nM and 125 nM
- GI50 [49]: 5900 nM and 7690 nM and 22600 nM
- TGI [49]: 24300 nM and 34300 nM and > 100000 nM
- GI50 [50]: 360 nM and 508 nM and 907 nM
- TGI [50]: 1630 nM and 1530 nM and 2280 nM
- GI50 [51]: 7.64 nM and 11.2 nM and < 10 nM
- TGI [51]: 40.3 nM and 24.6 nM and 21.9 nM
- GI50 [52]: 165 nM and 248 nM and 419 nM
- TGI [52]: 704 nM and 1280 nM and 4790 nM
- GI50 [53]: 202 nM and 111 nM and 89 nM
- TGI [53]: 2130 nM and 1360 nM and 1490 nM
- GI50 [54]: 32 nM and 23.9 nM and 21.9 nM
- TGI [54]: 235 nM and 157 nM and 163 nM
- GI50 [55]: 17.8 nM
- TGI [55]: 328 nM and 179 nM
- GI50 [56]: 39.9 nM and 34.8 nM and 35.8 nM
- TGI [56]: 264 nM and 168 nM and 173 nM
- GI50 [57]: 24.6 nM and 35.9 nM and 66.9 nM
- GI50 [58]: 40.3 nM and 31.7 nM and 43.3 nM
- TGI [58]: 126 nM and 100 nM and 174 nM
- GI50 [59]: 16.7 nM and 26.9 nM and 109 nM
- TGI [59]: 133 nM and 141 nM and 322 nM
- GI50 [60]: 73.4 nM and 116 nM
- TGI [60]: 539 nM and 821 nM
